Counter-ions that a name gives are not always drawn.
How the values were obtained:
in vivo = assay: in vivo; parameters: species or system guinea pigs; settings: guinea pig; for half-life: t1/2 (hr)
Excerpt: (§1) Male guinea pigs weighing 800-1000 grams (Harlan-Sprague-Dawley, San Diego, Calif.) were used for efficacy studies. Male guinea pigs (Harlan-Sprague-Dawley) weighing 400-600 grams were used for pharmacokinetic studies. The animals were housed, 1 per cage, in a temperature-controlled environment with alternating 12-hour periods of light and darkness and given unrestricted access to food and water. Prior to each study, animals were habituated to the environment for at least 7 days. Female CDI mice (Sprague-Dawley) weighing 22-28 grams were used for determination of maximum tolerated dose (MTD). All animals were maintained in accordance with guidelines of the Committee on Care and Use of Laboratory Animals of the Institute of Laboratory Animal Resources, National Research Council.
The in vivo pharmacokinetics of the MVL formulations of bupivacaine and free bupivacaine hydrochloride were compared following a single 1 mL intracutaneous dose of the MVL formulation containing 1.0 percent (w/v) of bupivacaine, or a dose of 0.5 percent (w/v) of unencapsulated bupivacaine hydrochloride to a group of guinea pigs. […] For the animals that received free bupivacaine hydrochloride, samples were collected at 0 and 30 minutes, and 1, 3, 6 and 9 hours following injection, while the animals that received the MVL formulations of bupivacaine were sampled 0, 6, 12, 18, 24, 48, and 72 hours following injection. At each time point, 3 or more animals were first anesthetized with halothane and then exanguinated by cardiac puncture. Serum samples were obtained by centrifugation of clotted whole blood. Skin was collected around the injection site with 3 cm margins, together with a 2-3 mm layer of underlying subcutaneous tissue. The skin and serum samples were kept frozen at −20° C. until analysis.
The amount of total bupivacaine remaining in the injection site was obtained by mincing the tissue followed by in toto homogenization in water using a Polytron homogenizer (Brinkman, Littau, Switzerland). Bupivacaine was extracted from the homogenate and analyzed by HPLC using a previously published method (Le Guevello et al., J. Chromatography 622:284-290, 1993). Bupivacaine concentration in serum was determined by extraction followed by HPLC (Le Guevello et al., supra). Tetracaine spiked into each sample before extraction was used as an internal standard. The limit of detection of the assay was 20 ng/mL.
Pharmacokinetic data obtained from the samples were analyzed using a noncompartmental model (WinNonlin software, Scientific Consulting, Inc., Apex, N.C.). Parameters calculated were the drug amount remaining at the injection site, the area under the “amount vs. time” curve (AUC), and drug half-life (t1/2,). In addition to the AUC and half-life, peak concentration (Cmax) was also reported for serum bupivacaine pharmacokinetics.
One way analysis of variance (ANOVA) was used to separately determine dose dependency for the different drug formulations and route of administration (via MVL or free drug) as well as for comparison between formulations. Student-Newman-Keuls tests were used on all ANOVA analyses.

mice = assay: Determination of maximum tolerated dose (MTD), subcutaneous test; assay type: in vivo; settings: highest dose at which none of the animals experienced systemic toxicity
Excerpt: as §1
Determination of maximum tolerated dose (MTD) was done in mice using a subcutaneous test known in the art (R. H. de long et al., Anesthesiology 54:177-81, 1981). Groups of three mice each were given injections of either 780 or 980 mg per kg body weight of the above-described MVL formulation containing bupivacaine sulfate as two divided doses of 500 μl each (total 1.0 mL volume). The doses were administered in rapid sequence into each flank. Control groups of 3 mice each received one of the test doses as a single dose of 10, 20, 30 or 50 mg/kg body weight of unencapsulated bupivacaine hydrochloride. […]

Question: Which “AUC (mg * hr), Skin” value (in vivo) does the source give for `CCCCN1CCCCC1C(=O)Nc1c(C)cccc1C` (centres unmarked) [Bupivacaine hydrochloride] here?
Answer: 2.9 mg·h

Question: What about the “tolerability of the intracutaneous dose” value (in vivo) of the same molecule?
Answer: unable to tolerate

Question: And the AUC (in vivo; male)?
Answer: 21200 ng·h/mL

Question: And the Cmax (in vivo; male)?
Answer: 6500 ng/mL

Question: And the “Peak Amount (mg), Skin” value (in vivo; male)?
Answer: 3.8 mg

Question: And the half-life (in vivo; male, Serum)?
Answer: 2.1 h

Question: And the half-life (in vivo; male, Skin)?
Answer: 1.3 h

Question: What about the “maximum tolerated dose (MTD)” value (mice) of the same molecule?
Answer: about 20 mg/kg of body weight
